One may read the IC50 as the concentration needed to halve the response being measured.

Where a name gives a salt, the structure may show the parent alone. Read-outs that look alike come from different tables or passages of the source. A value given as a limit tells only on which side of the number the result lay.

This passage reports IC50 results from patent US20160052898A1, “NOVEL COMPOUNDS” (BAYER PHARMA AKTIENGESELLSCHAFT, priority 2013, published 2016).

Assay [1] has as its system constitutive active colorectal cancer cell (CRC) Wnt pathway. In words: HCT116 Super TopFlash cellular reporter assay (constitutive active Wnt pathway). As to conditions: HCT116 TOP reporter cells, luciferase expression, 36 hours incubation, 50 μM to 15 nM. Type of assay: cell-based. The method in brief: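 HCT116 cells (β-catenin ΔS45) stably carrying Super TopFlash, with a parallel FOP-control line, were plated 24 h ahead. They were exposed 36 h at 37 °C, 5% CO2 to compound from a 50 μM–15 nM, 3.16-fold pre-dilution series in CAFTY buffer (pH 7.4, 2 mM Ca2+, 0.01% BSA). Wnt signalling was read as luciferase luminescence.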

Assay [2] has as its system HCT116 FOP control reporter cell line. In words: HCT116 FOP control vector reporter assay (non-functional TCF elements). Type of assay: cell-based. Conditions: HCT116 FOP control reporter cells, luciferase expression, 36 hours incubation, 50 μM to 15 nM, read-out: HCT116 FOPFlash IC50. The method in brief:
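Stable HCT116 line carrying the non-functional FOP luciferase construct, 10000 cells/well plated 24 hrs before. Compounds 50 μM to 15 nM (3.16-fold steps) in CAFTY buffer pH 7.4 with 2 mM Ca2+, 36 hours at 37° C; luciferase luminescence read.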
In general terms: A reporter such as luciferase makes a cellular process visible.

In the case of `COCCNCC(=O)Nc1cc(NC(=O)c2ccc(-c3ccccc3)cc2)ccc1OC` [Example 42, N-(4-methoxy-3-{[N-(2-methoxyethyl)glycyl]amino}phenyl)biphenyl-4-carboxamide], the half-inhibitory concentration (IC50) in assay [1] (Homo sapiens, HCT-116, 36 h) was 1110 nM; in assay [2] (Homo sapiens, HCT-116, 36 h), at least 50000 nM.
On the same counts, the results for `O=C(CN1CCOCC1)Nc1cc(C(=O)Nc2ccc(-c3ccccc3)cc2)ccc1OCc1ccccc1` [Example 24, 4-(benzyloxy)-N-(biphenyl-4-yl)-3-[(morpholin-4-ylacetyl)amino]benzamide] are 360 nM and at least 50000 nM.
On the same counts, the results for `CN(C)C(=O)c1ccc(C(=O)Nc2ccc(-c3ccccc3)cc2)cc1NC(=O)CN1CCOCC1` [Example 21, N^4-(biphenyl-4-yl)-N^1,N^1-dimethyl-2-[(morpholin-4-ylacetyl)amino]terephthalamide] are 334 nM and 16500 nM.
On the same counts, the results for `CCC(C(=O)Nc1cc(C(=O)Nc2ccc(-c3ccccc3)cc2)ccc1OC)N1CCOCC1` (stereo not shown) [Example 99, N-(biphenyl-4-yl)-4-methoxy-3-{[2-(morpholin-4-yl)butanoyl]amino}benzamide] are 380 nM and at least 50000 nM.
As to `COCc1ccc(C(=O)Nc2ccc(-c3ccccc3)cc2)cc1NC(=O)C(C)N1CCOCC1` (single isomer, unassigned) [Example 173, N-(biphenyl-4-yl)-4-(methoxymethyl)-3-{[(2S*)-2-(morpholin-4-yl)propanoyl]amino} benzamide], the IC50 in assay [1] was 214 nM; in assay [2], 7500 nM.
Turning to `COc1ccc(C(=O)Nc2ccc(-c3ccccc3)cc2)cc1N(C)C(=O)CN1CC2CCC(C1)O2` [Example 210, N-(biphenyl-4-yl)-4-methoxy-3-[methyl(8-oxa-3-azabicyclo[3.2.1]oct-3-ylacetyl)amino]benzamide], the IC50 in assay [1] (Homo sapiens, HCT-116, 36 h) is 3600 nM; in assay [2] (Homo sapiens, HCT-116, 36 h), at least 50000 nM.
On to `O=C(CN1CCOCC1)Nc1cc(C(=O)Nc2ccc(-c3ccccc3)cc2)ccc1OCCCO` [Example 121, N-(biphenyl-4-yl)-4-(3-hydroxypropoxy)-3-[(morpholin-4-ylacetyl)amino]benzamide], for which the concentration for half-maximal inhibition (IC50) was 237 nM in assay [1] (Homo sapiens, HCT-116, 36 h) and at least 50000 nM in assay [2] (Homo sapiens, HCT-116, 36 h).
On the same counts, the results for `COc1ccc(NC(=O)c2ccc(-c3ccccc3)cc2)cc1NC(=O)C1(NC(=O)OC(C)(C)C)CC1` [Example 129, tert-butyl[1-({5-[(biphenyl-4-ylcarbonyl)amino]-2-methoxyphenyl}carbamoyl)cyclopropyl]carbamate] are 195 nM and 11000 nM.
On the same counts, the results for `COCc1ccc(C(=O)Nc2ccc(-c3ccccc3)cc2)cc1NC(=O)C(C)N1CCOCC1` (stereo not shown) [Example 157, N-(biphenyl-4-yl)-4-(methoxymethyl)-3-{[2-(morpholin-4-yl)propanoyl)amino} benzamide] are 60.5 nM and 43500 nM.
For `COc1ccc(NC(=O)c2ccc(-c3ccccc3)cc2)cc1NC(=O)CN1CCOC[C@@H]1CCO` [Example 213, N-[3-({[(3S)-3-(2-hydroxyethyl)morpholin-4-yl]acetyl}amino)-4-methoxyphenyl]biphenyl-4-carboxamide] the same measures were 4600 nM and at least 50000 nM.
As to `COc1ccc(NC(=O)c2ccc(-c3ccc(CN)cc3)cc2)cc1NC(=O)CN1CCOCC1` [Example 120, 4′-(aminomethyl)-N-{4-methoxy-3-[(morpholin-4-ylacetyl)amino]phenyl}biphenyl-4-carboxamide], the IC50 is 755 nM in assay [1] (Homo sapiens, HCT-116, 36 h) and at least 50000 nM in assay [2] (Homo sapiens, HCT-116, 36 h).
For the compound `O=C(CN1CCOCC1)Nc1cc(C(=O)Nc2ccc(-c3ccccc3)cc2)ccc1CO` [Example 204, N-(biphenyl-4-yl)-4-(hydroxymethyl)-3-[(morpholin-4-ylacetyl)amino]benzamide], the IC50 in assay [1] (Homo sapiens, HCT-116, 36 h) is 2250 nM; in assay [2] (Homo sapiens, HCT-116, 36 h), at least 50000 nM.
On the same counts, the results for `O=C(CN1C[C@@H]2C[C@H]1CO2)Nc1cc(C(=O)Nc2ccc(-c3ccccc3)cc2)ccc1C(F)(F)F` [Example 11, N-(biphenyl-4-yl)-3-{[(1S,4S)-2-oxa-5-azabicyclo[2.2.1]hept-5-ylacetyl]amino}-4-(trifluoromethyl)benzamide] are 533 nM and at least 50000 nM.
With `COC(=O)c1cccc(-c2ccc(C(=O)Nc3ccc(OC)c(NC(=O)CN4CCOCC4)c3)cc2)c1` [Example 77, methyl 4′-({4-methoxy-3-[(morpholin-4-ylacetyl)amino]phenyl}carbamoyl)biphenyl-3-carboxylate], the IC50 was 3950 nM in assay [1] (Homo sapiens, HCT-116, 36 h) and at least 50000 nM in assay [2] (Homo sapiens, HCT-116, 36 h).
For `COc1c(F)cc(C(=O)Nc2ccc(-c3ccccc3)cc2)cc1NC(=O)CN1CCOCC1` [Example 134, N-(biphenyl-4-yl)-3-fluoro-4-methoxy-5-[(morpholin-4-ylacetyl)amino]benzamide] the same measures were 398 nM and at least 50000 nM.
`CNc1ccc(-c2ccc(C(=O)Nc3ccc(OC)c(NC(=O)CN4CCOCC4)c3)cc2)cc1` [Example 119, N-{4-methoxy-3-[(morpholin-4-ylacetyl)amino]phenyl}-4′-(methylamino)biphenyl-4-carboxamide]: the IC50 in assay [1] (Homo sapiens, HCT-116, 36 h) is 260 nM; in assay [2] (Homo sapiens, HCT-116, 36 h) it was at least 50000 nM.
For `O=C(CN1CCN(C2CC2)CC1)Nc1cc(C(=O)Nc2ccc(-c3ccccc3)cc2)ccc1OCC1CC1` [Example 219, N-(biphenyl-4-yl)-4-(cyclopropylmethoxy)-3-{[(4-cyclopropylpiperazin-1-yl)acetyl]amino}benzamide] the same measures were 65.5 nM and at least 50000 nM.
For `COCCOCc1ccc(C(=O)Nc2ccc(-c3ccccc3)cc2)cc1NC(=O)C(C)N1CCOCC1` (stereo not shown) [Example 164, N-(biphenyl-4-yl)-4-[(2-methoxyethoxy)methyl]-3-{[2-(morpholin-4-yl)propanoyl]amino} benzamide] the same measures were 134 nM and at least 50000 nM.
Regarding `COCCOCCOc1ccc(C(=O)Nc2ccc(-c3ccc(C)cc3)cc2)cc1NC(=O)C1(N2CCOCC2)CC1` [Example 221, 4-[2-(2-methoxyethoxy)ethoxy]-N-(4′-methylbiphenyl-4-yl)-3-({[1-(morpholin-4-yl)cyclopropyl]carbonyl}amino)benzamide], the concentration for half-maximal inhibition (IC50) in assay [1] (Homo sapiens, HCT-116, 36 h) was 1100 nM; in assay [2] (Homo sapiens, HCT-116, 36 h), at least 50000 nM.
On the same counts, the results for `COc1ccc(NC(=O)c2ccc(-c3ccccc3)cc2)cc1NC(=O)C1(N2CCN(C)CC2)CC1` [Example 163, N-[4-methoxy-3-({[1-(4-methylpiperazin-1-yl)cyclopropyl]carbonyl}amino)phenyl]biphenyl-4-carboxamide hydrochloride (1:1)] are 127 nM and 12600 nM.
With `COCCNCC(=O)Nc1cc(NC(=O)c2ccc(-c3ccccc3)cc2)ccc1OC(F)(F)F` [Example 130, N-[3-{[N-(2-methoxyethyl)glycyl]amino} -4-(trifluoromethoxy)phenyl] biphenyl-4-carboxamide], the IC50 was determined as 248 nM in assay [1] (Homo sapiens, HCT-116, 36 h) and 28000 nM in assay [2] (Homo sapiens, HCT-116, 36 h).
For `COc1ccc(NC(=O)c2ccc(-c3ccc(O)cc3)cc2)cc1NC(=O)CN1CCOCC1` [Example 195, 4′-hydroxy-N-{4-methoxy-3-[(morpholin-4-ylacetyl)amino)phenyl} biphenyl-4-carboxamide] the same measures were 975 nM and 39000 nM.
For `O=C(CN1C[C@@H]2C[C@H]1CO2)Nc1cc(C(=O)Nc2ccc(-c3ccccc3)cc2)ccc1OC1CC1` [Example 192, N-(biphenyl-4-yl)-4-(cyclopropyloxy)-3-{[(1S,4S)-2-oxa-S-azabicyclo[2.2.1]hept-5-ylacetyl]amino}benzamide] the same measures were 785 nM and at least 50000 nM.
For `COCc1ccc(C(=O)Nc2ccc(-c3ccccc3)cc2)cc1NC(=O)C1(N(C)C)CC1` [Example 158] the same measures were 63 nM and at least 50000 nM.
Take `COc1ccc(NC(=O)c2ccc(-c3ccccc3)cc2)cc1NC(=O)[C@@H](C)N1CC2CCC(C1)O2` [Example 57, N-(4-methoxy-3-{[(2R)-2-(8-oxa-3-azabicyclo[3.2.1]oct-3-yl)propanoyl]amino}phenyl)biphenyl-4-carboxamide]: the IC50 in assay [1] (Homo sapiens, HCT-116, 36 h) is 490 nM; in assay [2] (Homo sapiens, HCT-116, 36 h), at least 50000 nM.
For `O=C(CN1CCOCC1)Nc1cc(C(=O)Nc2ccc(-c3ccccc3)cc2)ccc1OCCO` [Example 93, N-(biphenyl-4-yl)-4-(2-hydroxyethoxy)-3-[(morpholin-4-ylacetyl)amino]benzamide] the same measures were 194 nM and at least 50000 nM.
For `O=C(CN1CCOCC1)Nc1cc(NC(=O)c2ccc(-c3ccccc3)cc2)ccc1O` [Example 84, N-{4-hydroxy-3-[(morpholin-4-ylacetyl)amino]phenyl}biphenyl-4-carboxamide] the same measures were 2030 nM and at least 50000 nM.
For `O=C(CN1CCOCC1)Nc1cc(NC(=O)c2ccc(-c3ccccc3)cc2)ccc1Br` [Example 68, N-{4-bromo-3-[(morpholin-4-ylacetyl)amino]phenyl}biphenyl-4-carboxamide] the same measures were 513 nM and at least 50000 nM.
Take `O=C(CN1CCOCC1)Nc1cc(C(=O)Nc2ccc(-c3ccccc3)cc2)ccc1C(=O)NCCN1CCCC1` [Example 191, N4-(biphenyl-4-yl)-2-[(morpholin-4-ylacetyl)amino]-N1-[2-(pyrrolidin-1-yl)ethyl]terephthalamide]: the IC50 in assay [1] (Homo sapiens, HCT-116, 36 h) came out at 715 nM; in assay [2] (Homo sapiens, HCT-116, 36 h), 12000 nM.
